Experimental data as given in patent publication US4169150A, “Benzodiazepine derivatives and pharmaceutical compositions containing said derivatives” (Teijin Limited, priority 1975, dated 1979).

Key:
mice [1] = test: Anti-electroshock convulsant activity (maximal electroshock); type: in vivo, mouse (ddY-type male mice); conditions: Mus musculus, PO, electroshock 30 mA, 200 Hz 1 hour later, read-out: ED50 anti-convulsion, maximal electroshock
Method: (§1) In the following tests, the pharmacological actions of the compounds were tested by using six mice (ddY-type male mice) for each dosage level, and ED50 values were determined. In the determination of ED50 values, the dosages of the test compounds were increased or decreased by a common ratio of 3 as required, and 3 or 4 dosage levels were used. The calculation of the ED50 values was made on the basis of the Litchfield-Wilcoxon method [J. Pharmacol. Exp. Therap., 96, 99 (1949)].
(3) Anti-electroshock convulsant activity
The subjects were orally administered with the test compound. One hour later, electroshock (30 mA, 200 Hz, 1 msec) was applied for 0.2 second through both ears, and the presence or absence of tonic extensor convulsion was examined.

mice [2] = test: Motor incoordinating activity (rotating rod); type: in vivo, mouse (ddY-type male mice); conditions: Mus musculus, 0.05 h, PO, 5.5 rpm, within 3 minutes, read-out: ED50 motor incoordination, rotating rod
Method: as §1
(6) Motor incoordinating activity
Mice which could stay for more than 3 minutes on a rotating rod having a diameter of 3.0 cm and rotating at a speed of 5.5 rpm. The subjects were orally administered with the test compound, and then at intervals of 30 minutes, they were placed on the rotating rod. Examination was made as to whether they slipped down within 3 minutes.

mice [3] = test: Muscle relaxant activity (inclined screen); type: in vivo, mouse (ddY-type male mice); conditions: Mus musculus, PO, plate inclined at 70°, 30 seconds, read-out: ED50 muscle relaxation, inclined screen
Method: as §1
(5) Muscle relaxant activity
Mice were placed on a wooden plate having a smooth surface and being inclined at an angle of 70°, and those which could stay on the initially placed positions for more than 30 seconds were selected. The selected subjects were orally administered with the test compound, and placed on the inclined plate. Examination was made as to whether the mice slipped down within 30 seconds.

mice [4] = test: Potentiation of thiopental hypnosis (sedation); type: in vivo, mouse (ddY-type male mice); conditions: Mus musculus, 1 h, PO, sodium thiopental 50 mg/kg i.p., sleeping time prolonged to two times
Method: as §1
(4) Potentiation of thiopental hypnosis
The subjects were orally administered with the test compound. One hour later, sodium thiopental in an amount of 50 mg/kg was administered intraperitoneally. The dosage which prolonged the sleeping time (the period of loss of righting reflex) to two times that in the case of a group administered only with sodium thiopental was determined.

mice [5] = test: Anti-pentylene tetrazole convulsion activity; type: in vivo, mouse (ddY-type male mice); conditions: Mus musculus, PO, pentylene tetrazole 125 mg/kg s.c. 1 hour later, read-out: ED50 anti-convulsion, pentetrazol shock
Method: as §1
(1) Anti-pentylene tetrazole convulsion activity
Each of test compounds suspended in a 5% gum arabic solution was orally administered to mice. One hour later, pentylene tetrazole in an amount of 125 mg/kg was administered subcutaneously. Then, over the course of 30 minutes, the presence or absence of convulsion in the subjects was examined.

mice [6] = test: Taming activity (fighting mouse); type: in vivo, mouse (ddY-type male mice); conditions: PO, electroshock 100 V, 3 mA
Method: as §1
This was determined by a partially modified version of the method of Tedeschi et al. [J. Pharmacol. Exp. Therap., 125, 28 (1959)]. Two mice different in body weight by less than 1 gram were placed in a fighting device, and electroshock (100 V, 3 mA, 0.45 Hz, 0.5 sec) was applied for 3 minutes. […] Then, at intervals of 30 minutes, electroshock was applied under the above conditions, and the presence or absence of fighting reaction in the subjects was examined.

[7] = Pharmacological / central nervous system depressant actions, general statement; type: in vivo; conditions: anti-anxietic, sedative, hypnotic, muscle relaxant, anti-convulsant actions
mice [8] = test: Acute toxicity; type: in vivo, mouse (male ddY-type mice); conditions: one week observation
Method: A test compound was suspended in a 5% solution of gum arabic, and the suspension was administered to a group of 2 to 4 male ddY-type mice in a dose of 1000, 2000, and 3000 mg/kg, respectively. The conditions of the subjects were observed over a period of one week after administration, and the acute toxicity was examined.

| Structure (SMILES) | ED50 (mice [1]) | ED50 (mice [2]) | ED50 (mice [3]) | ED50 (mice [4]) | ED50 (mice [5]) | ED50 (mice [6]) | Pharmacological actions in words [7] | Acute toxicity: death of the subjects (mice [8]; 3000 mg/kg) | Acute toxicity: death of the subjects (mice [8]; 1000 mg/kg) |
| --- | --- | --- | --- | --- | --- | --- | --- | --- | --- |
| Clc1ccc2c(c1)C(c1ccccc1Cl)=NCc1cccn1-2 [Comparison (R5=Cl, R6=Cl, R7=H), reference compound] | > 100 mg/kg | > 100 mg/kg | > 100 mg/kg | 18 mg/kg | > 100 mg/kg | > 100 mg/kg |  |  |  |
| Clc1ccc2c(c1)C(c1ccccc1)=NCc1cccn1-2 [Comparison (R5=Cl, R6=H, R7=H), 8-Chloro-6-phenyl-4H-pyrrolo[1,2-a][1,4]benzodiazepine, reference compound] | > 100 mg/kg | > 100 mg/kg | > 100 mg/kg | 44 mg/kg | 78 mg/kg | > 100 mg/kg | does not substantially show those pharmacological actions which are common to many other known benzodiazepines |  |  |
| c1ccc(C2=NCc3cccn3-c3ccccc32)cc1 [Comparison (R5=H, R6=H, R7=H), reference compound] | > 100 mg/kg | > 100 mg/kg | > 100 mg/kg | 55 mg/kg | > 100 mg/kg | 78 mg/kg |  |  |  |
| Cc1ccc2n1-c1ccc(Cl)cc1C(c1ccccc1Cl)=NC2 [Compound 1, 8-chloro-6-(2-chlorophenyl)-1-methyl-4H-pyrrolo[1,2-a][1,4]benzodiazepine] | > 100 mg/kg | 100 mg/kg | > 100 mg/kg | 2.8 mg/kg | 20 mg/kg | 11 mg/kg |  |  |  |
| Cc1ccc2n1-c1ccc(Cl)cc1C(c1ccccc1F)=NC2 [Compound 2, 8-chloro-6-(2-fluorophenyl)-1-methyl-4H-pyrrolo[1,2-a][1,4]benzodiazepine] | > 100 mg/kg | > 100 mg/kg | > 100 mg/kg | 6.9 mg/kg | 36 mg/kg | 55 mg/kg |  |  |  |
| Cc1cc2n(c1C)-c1ccc(Cl)cc1C(c1ccccc1F)=NC2 [Compound 3, 8-chloro-1,2-dimethyl-6-(2-fluorophenyl)-4H-pyrrolo[1,2-a][1,4]benzodiazepine] | > 100 mg/kg | > 100 mg/kg | > 100 mg/kg | 10 mg/kg | 10 mg/kg | 17 mg/kg |  |  |  |
| Cc1cc2n(c1C)-c1ccc(Cl)cc1C(c1ccccc1Cl)=NC2 [Compound 4, 8-chloro-6-(2-chlorophenyl)-1,2-dimethyl-4H-pyrrolo[1,2-a][1,4]benzodiazepine] | > 100 mg/kg | 40 mg/kg | > 100 mg/kg | 2.6 mg/kg | 6.5 mg/kg | 4.8 mg/kg |  |  |  |
| Cc1cc2n(c1C)-c1ccc(Cl)cc1C(c1ccccc1)=NC2 [Compound 5, 8-chloro-1,2-dimethyl-6-phenyl-4H-pyrrolo[1,2-a][1,4]benzodiazepine] | > 100 mg/kg | > 100 mg/kg | > 100 mg/kg | 21 mg/kg | 13.5 mg/kg | ≥ 30 mg/kg |  |  |  |
| CCc1cc2n(c1C)-c1ccc(Cl)cc1C(c1ccccc1Cl)=NC2 [Compound 6, 8-chloro-6-(2-chlorophenyl)-2-ethyl-1-methyl-4H-pyrrolo[1,2-a][1,4]benzodiazepine] | > 30 mg/kg | 23.5 mg/kg | 14 mg/kg | 0.8 mg/kg | 3.4 mg/kg | 5.5 mg/kg |  |  |  |
| CCc1cc2n(c1C)-c1ccc(Cl)cc1C(c1ccccc1F)=NC2 [Compound 7, 8-chloro-2-ethyl-6-(2-fluorophenyl)-1-methyl-4H-pyrrolo[1,2-a][1,4]benzodiazepine] | > 30 mg/kg | > 100 mg/kg | 30 mg/kg | 2.2 mg/kg | 5.5 mg/kg | 5.5 mg/kg |  |  |  |
| CCc1cc2n(c1C)-c1ccc(Cl)cc1C(c1c(F)cccc1F)=NC2 [Compound 8, 8-chloro-2-ethyl-6-(2,6-difluorophenyl)-1-methyl-4H-pyrrolo[1,2-a][1,4]benzodiazepine] | > 30 mg/kg | > 100 mg/kg | 69 mg/kg | 1.9 mg/kg | 11.2 mg/kg | 12.5 mg/kg |  |  |  |
| Cc1cc(C)n2c1CN=C(c1ccccc1Cl)c1cc(Cl)ccc1-2 [Compound 9, 8-chloro-6-(2-chlorophenyl)-1,3-dimethyl-4H-pyrrolo[1,2-a][1,4]benzodiazepine] | 100 mg/kg | 15.5 mg/kg | 8.2 mg/kg | 0.34 mg/kg | 1.8 mg/kg | 1.6 mg/kg |  | did not cause any death |  |
| Cc1cc(C)n2c1CN=C(c1ccccc1F)c1cc(Cl)ccc1-2 [Compound 10, 8-chloro-1,3-dimethyl-6-(2-fluorophenyl)-4H-pyrrolo[1,2-a][1,4]benzodiazepine] | > 100 mg/kg | > 30 mg/kg | 21.5 mg/kg | 2.4 mg/kg | 5.5 mg/kg | 8.8 mg/kg |  |  |  |
| Cc1cc(C)n2c1CN=C(c1c(F)cccc1F)c1cc(Cl)ccc1-2 [Compound 11, 8-chloro-6-(2,6-difluorophenyl)-1,3-dimethyl-4H-pyrrolo[1,2-a][1,4]benzodiazepine] | 88 mg/kg | 15.5 mg/kg | 10 mg/kg | 0.7 mg/kg | 2 mg/kg | 1.6 mg/kg |  | did not cause any death |  |
| CN1C(=O)CN=C(c2ccccc2)c2cc(Cl)ccc21 [Diazepam, reference compound] | 8.8 mg/kg |  | 1 mg/kg | 0.3 mg/kg | 0.7 mg/kg | 1.6 mg/kg |  |  | caused half of the mice to die |
